Article PMC12308784, “Organometallic Half-Sandwich Complexes of 1,10-Phenanthroline Derivatives with Improved Solubility, Albumin-Binding, and Nanoformulation Potential Targeting Drug Resistance in Cancer” (Inorganic Chemistry, 2025)

Assay: ternary complex formation with histidine model 1-methylimidazole by 1H NMR
Conditions: PBS’ pH 7.4
From the text: Our other aim was to investigate the binding kinetics of RuCymBP over a longer period of time, since MeIm has no such stability problems compared to HSA in a 2 week follow-up.
Slow exchange of the aqua and chlorido complexes on the NMR time scale is not unique for RuCym complexes; formerly we have observed the same phenomenon with 2-picolinate and cyclometalated 4-phenylthiazole complexes. , The ternary complex formation with MeIm is rather slow; at a 1:1 ratio, the emergence of a new peak can be observed after 6 days, and only ca. 10% ternary complex forms after 14 days. By increasing the MeIm excess to 10-fold, the ternary complex becomes detectable after 8 h and about 2/3 of the metal complex transforms to the ternary species after 14 days. ^1H NMR studies on the RhCp*BP – MeIm system indicated a more rapid and almost quantitative interaction (Figure S21). […] The quantity of the ternary complex formed with MeIm agrees very well with previously reported data on RhCp*BPY–MeIm (67%), although the complex formation was reported to be slower for the latter. […]
A Bruker AVANCE III HD Ascend 500 Plus instrument was used for NMR studies. For the characterization of the complexes both the ^1H and ^13C NMR spectra were recorded in CD3OD (10 mM, t = 25 °C). […]
Figure S 19. Fluorescence emission spectra of HSA in the presence of RhCp*BP over 5 h { cRhCp*BP = […]

Cc1ccc(C(C)C)cc1.[Cl-].[Cl-].[Ru+2].c1ccc(-c2ccnc3c2ccc2c(-c4ccccc4)ccnc23)cc1 [RuCymBP, [Ru(II)(η^6-p-cymene)(bathophenanthroline)Cl]Cl]
time until the ternary complex is detectable (10-fold MeIm excess): 8 h | time until the ternary complex peak emerges (complex:MeIm 1:1): 6 days
